SMILES strings stand for the structures.

The test system of the experiment is HCV 1b-377-neo replicon cells. The experiment in a line: HCV replicon assay, HCV 1b-377-neo replicon cells (1b FRET). The experiment is classed as cell-based, Hepatitis C virus genotype 1b. To be noted: Hepatitis C virus, HCV 1b-377-neo replicon cells; HCV 1b genotype; read-out: EC50 range against HCV 1b (Table 2, Range). The essentials:
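Compounds were tested in genotype 1b subgenomic replicon cells carrying a neomycin marker, alongside a matched replicon line with an NS5A Y2065H substitution that confers resistance to a reference NS5A inhibitor.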
On to `COC(=O)N[C@H](C(=O)N1CC(F)(F)C[C@H]1c1ncc(-c2ccc(-c3ccc(-c4cnc([C@@H]5CC(F)(F)CN5C(=O)[C@@H](NC(=O)OC)[C@@H](C)OC)[nH]4)cc3)cc2)[nH]1)[C@@H](C)OC` [OL-10, methyl ((1S,2R)-1-(((2S)-2-(4-(4′-(2-((2S)-4,4-difluoro-1-(N-(methoxycarbonyl)-O-methyl-L-threonyl)-2-pyrrolidinyl)-1H-imidazol-4-yl)-4-biphenylyl)-1H-imidazol-2-yl)-4,4-difluoro-1-pyrrolidinyl)carbonyl)-2-methoxypropyl)carbamate], for which the EC50 was 0.001 to 0.999 nM.
Then `Cc1cc(CC(=O)N2CCC[C@H]2c2ncc(-c3ccc(-c4ccc(-c5cnc([C@@H]6CCCN6C(=O)[C@@H](c6ccccc6)N6CCCCC6)[nH]5)cc4)cc3)[nH]2)on1` [Example 107-24, 1-((1R)-2-((2S)-2-(5-(4′-(2-((2S)-1-((3-methyl-5-isoxazolyl)acetyl)-2-pyrrolidinyl)-1H-imidazol-5-yl)-4-biphenylyl)-1H-imidazol-2-yl)-1-pyrrolidinyl)-2-oxo-1-phenylethyl) piperidine], with 0.001 to 0.999 nM; and `COC(=O)N[C@@H](C(=O)N1CCC[C@H]1c1ncc(-c2ccc(-c3ccc(-c4cnc([C@@H]5CCCN5C(=O)[C@H](C)N)[nH]4)cc3)cc2)[nH]1)c1ccccc1` [Example 84, methyl ((1R)-2-((2S)-2-(5-(4′-(2-((2S)-1-L-alanyl-2-pyrrolidinyl)-1H-imidazol-5-yl)-4-biphenylyl)-1H-imidazol-2-yl)-1-pyrrolidinyl)-2-oxo-1-phenylethyl)carbamate], with 0.001 to 0.999 nM.
Then `COC(=O)N[C@@H](C(=O)N1CCC[C@H]1c1ncc(-c2ccc(-c3ccc(-c4cnc([C@@H]5CCCN5C(=O)[C@@](C)(O)c5ccccc5F)[nH]4)cc3)cc2)[nH]1)c1ccccc1` [Example 84-2, methyl ((1R)-2-((2S)-2-(5-(4′-(2-((2S)-1-((2S)-2-(2-fluorophenyl)-2-hydroxypropanoyl)-2-pyrrolidinyl)-1H-imidazol-5-yl)-4-biphenylyl)-1H-imidazol-2-yl)-1-pyrrolidinyl)-2-oxo-1-phenylethyl)carbamate], with 0.001 to 0.999 nM; and `COC(=O)N[C@@H](C)C(=O)N1CCC[C@H]1c1ncc(-c2ccc(-c3ccc(-c4cnc([C@@H]5CCCN5C(=O)[C@@H](c5ccccc5)N5CCCC5)[nH]4)cc3)cc2)[nH]1` [Example 101, methyl ((1S)-1-methyl-2-oxo-2-((2S)-2-(5-(4′-(2-((2S)-1-((2R)-2-phenyl-2-(1-pyrrolidinyl)acetyl)-2-pyrrolidinyl)-1H-imidazol-5-yl)-4-biphenylyl)-1H-imidazol-2-yl)-1-pyrrolidinyl)ethyl)carbamate], with 0.001 to 0.999 nM.
Next, `CN(C)[C@@H](C(=O)N1CCC[C@H]1c1ncc(-c2ccc(-c3ccc(-c4cnc([C@@H]5CCCN5C(=O)N5CCOCC5)[nH]4)cc3)cc2)[nH]1)c1ccccc1` [Example 93, (1R)-N,N-dimethyl-2-((2S)-2-(5-(4′-(2-((2S)-1-(4-morpholinylcarbonyl)-2-pyrrolidinyl)-1H-imidazol-5-yl)-4-biphenylyl)-1H-imidazol-2-yl)-1-pyrrolidinyl)-2-oxo-1-phenylethanamine]: 0.001 to 0.999 nM; `COC(=O)N[C@@H](C(=O)N1CCC[C@H]1c1ncc(-c2ccc(-c3ccc(-c4cnc([C@@H]5CCCN5C(=O)Cc5cnc[nH]5)[nH]4)cc3)cc2)[nH]1)c1ccccc1` [Example 61, methyl ((1R)-2-((2S)-2-(5-(4′-(2-((2S)-1-(1H-imidazol-5-ylacetyl)-2-pyrrolidinyl)-1H-imidazol-5-yl)-4-biphenylyl)-1H-imidazol-2-yl)-1-pyrrolidinyl)-2-oxo-1-phenylethyl)carbamate]: 0.001 to 0.999 nM.
Consider `CCN(CC)[C@@H](C(=O)N1C[C@@H](O)C[C@H]1c1ncc(-c2ccc(-c3ccc(-c4cnc([C@@H]5C[C@H](O)CN5C(=O)[C@@H](c5ccccc5)N(CC)CC)[nH]4)cc3)cc2)[nH]1)c1ccccc1` [JG-7, (3S,5S,3′S,5′S)-5,5′-(4,4′-biphenyldiylbis(1H-imidazole-5,2-diyl))bis(1-((2R)-2-(diethylamino)-2-phenylacetyl)-3-pyrrolidinol)], for which the EC50 lay in the range of 0.001 to 0.999 nM.
Take `O=C(N[C@@H](C(=O)N1CCC[C@H]1c1ncc(-c2ccc(-c3ccc(-c4cnc([C@@H]5CCCN5C(=O)[C@H]5CCCO5)[nH]4)cc3)cc2)[nH]1)c1ccccc1)N1CCOCC1` [Example 120, N-((1R)-2-oxo-1-phenyl-2-((2S)-2-(5-(4′-(2-((2S)-1-((2R)-tetrahydro-2-furanylcarbonyl)-2-pyrrolidinyl)-1H-imidazol-5-yl)-4-biphenylyl)-1H-imidazol-2-yl)-1-pyrrolidinyl)ethyl)-4-morpholinecarboxamide]: the EC50 lay within 0.001 to 0.999 nM.
For `COC(=O)N[C@@H](C)C(=O)N1CCC[C@H]1c1ncc(-c2ccc(-c3ccc(-c4cnc([C@@H]5CCCN5C(=O)[C@H](NC(=O)OC)c5ccccc5)[nH]4)cc3)cc2)[nH]1` [Example 75, methyl ((1R)-2-((2S)-2-(5-(4′-(2-((2S)-1-(N-(methoxycarbonyl)-L-alanyl)-2-pyrrolidinyl)-1H-imidazol-5-yl)-4-biphenylyl)-1H-imidazol-2-yl)-1-pyrrolidinyl)-2-oxo-1-phenylethyl)carbamate], the EC50 lay within 0.001 to 0.999 nM.
Then `CC(=O)N[C@@H](C(=O)N1CCC[C@H]1c1ncc(-c2ccc(-c3ccc(-c4cnc([C@@H]5CCCN5C(=O)[C@H](NC(C)=O)c5ccccc5)[nH]4)cc3)cc2)[nH]1)c1ccccc1` [Example 25, N,N′-(4,4′-biphenyldiylbis(1H-imidazole-5,2-diyl(2S)-2,1-pyrrolidinediyl((1R)-2-oxo-1-phenyl-2,1-ethanediyl)))diacetamide], with 0.001 to 0.999 nM; and `COC(=O)N[C@@H](CC(=O)N1CCC[C@H]1c1ncc(-c2ccc(-c3ccc(-c4cnc([C@@H]5CCCN5C(=O)C[C@H](NC(=O)OC)c5ccccc5)[nH]4)cc3)cc2)[nH]1)c1ccccc1` [cj-129, methyl ((1S)-3-((2S)-2-(5-(4′-(2-(1-((3S)-3-((methoxycarbonyl)amino)-3-phenylpropanoyl)-2-pyrrolidinyl)-1H-imidazol-5-yl)-4-biphenylyl)-1H-imidazol-2-yl)-1-pyrrolidinyl)-3-oxo-1-phenylpropyl)carbamate], with 0.001 to 0.999 nM.
Next, `CN(C)[C@@H](C(=O)N1CCC[C@H]1c1ncc(-c2ccc(-c3ccc(-c4cnc([C@@H]5CCCN5C(=O)Cc5cccnc5)[nH]4)cc3)cc2)[nH]1)c1ccccc1` [Example 85, (1R)-N,N-dimethyl-2-oxo-1-phenyl-2((2S)-2-(5-(4′-(2-((2S)-1-(3-pyridinylacetyl)-2-pyrrolidinyl)-1H-imidazol-5-yl)-4-biphenylyl)-1H-imidazol-2-yl)-1-pyrrolidinyl)ethanamine]: 0.001 to 0.999 nM; `COC(=O)N[C@@H](C)C(=O)N1CCC[C@H]1c1ncc(-c2ccc(-c3ccc(-c4cnc([C@@H]5CCCN5C(=O)[C@H](C)NC(=O)OC)[nH]4)c(F)c3)cc2F)[nH]1` [Example D61, methyl ((1S)-2-((2S)-2-(5-(3,3,-difluoro-4′-(2-((2S)-1-(N-(methoxycarbonyl)-L-alanyl)-2-pyrrolidinyl)-1H-imidazol-5-yl)-4-biphenylyl)-1H-imidazol-2-yl)-1-pyrrolidinyl)-1-methyl-2-oxoethyl)carbamate]: 0.001 to 0.999 nM; `COC(=O)N[C@H](C(=O)N1CC(F)(F)C[C@H]1c1nc(-c2ccc(-c3ccc(-c4cnc([C@@H]5CCCN5C(=O)[C@@H](NC(=O)OC)C(C)C)[nH]4)c(F)c3)cc2)c[nH]1)C(C)C` [Example J14e, methyl ((1S)-1-(((2S)-4,4-difluoro-2-(4-(3′-fluoro-4′-(2-((2S)-1-((2S)-2-((methoxycarbonyl)amino)-3-methylbutanoyl)-2-pyrrolidinyl)-1H-imidazol-4-yl)-4-biphenylyl)-1H-imidazol-2-yl)-1-pyrrolidinyl)carbonyl)-2-methylpropyl)carbamate]: 0.001 to 0.999 nM.
`COC(=O)N[C@@H](C(=O)N1CCC[C@H]1c1ncc(-c2ccc(-c3ccc(-c4cnc([C@@H]5CCCN5C(=O)[C@@H]5CCCO5)[nH]4)cc3C)cc2)[nH]1)c1ccccc1` [Example 128, methyl ((1R)-2-((2S)-2-(5-(2′-methyl-4′-(2-((2S)-1-((2S)-tetrahydro-2-furanylcarbonyl)-2-pyrrolidinyl)-1H-imidazol-5-yl)-4-biphenylyl)-1H-imidazol-2-yl)-1-pyrrolidinyl)-2-oxo-1-phenylethyl)carbamate]: the EC50 lay in the range of 0.001 to 0.999 nM.
Next, `CN[C@@H](C(=O)N1CCC[C@H]1c1nc(-c2ccc(-c3ccc(-c4cnc([C@@H]5CCCN5C(=O)[C@H](NC)c5ccccc5)[nH]4)cc3)cc2)c[nH]1)c1ccccc1` [Example F15, (1R)-N-methyl-2-((2S)-2-(4-(4′-(2-((2S)-1-((2R)-2-(methylamino)-2-phenylacetyl)-2-pyrrolidinyl)-1H-imidazol-5-yl)-4-biphenylyl)-1H-imidazol-2-yl)-1-pyrrolidinyl)-2-oxo-1-phenylethanamine]: 0.001 to 0.999 nM; `CCNC(=O)NCc1ccc(C[C@H](NC(=O)OC)C(=O)N2CCC[C@H]2c2ncc(-c3ccc(-c4ccc(-c5cnc([C@@H]6CCCN6C(=O)[C@@H](NC(=O)OC)C(C)C)[nH]5)cc4)cc3)[nH]2)cc1` [cj-115, methyl ((1S)-1-(4-(((ethylcarbamoyl)amino)methyl)benzyl)-2-((2S)-2-(5-(4′-(2-((2S)-1-((2S)-2-((methoxycarbonyl)amino)-3-methylbutanoyl)-2-pyrrolidinyl)-1H-imidazol-5-yl)-4-biphenylyl)-1H-imidazol-2-yl)-1-pyrrolidinyl)-2-oxoethyl)carbamate]: 0.001 to 0.999 nM; `C[C@H](O)C(=O)N1CCC[C@H]1c1nc(-c2ccc(-c3ccc(-c4cnc([C@@H]5CCCN5C(=O)[C@H](C)O)[nH]4)cc3)cc2)c[nH]1` [Example F27, (2S)-1-((2S)-2-(4-(4′-(2-((2S)-1-((2S)-2-hydroxypropanoyl)-2-pyrrolidinyl)-1H-imidazol-5-yl)-4-biphenylyl)-1H-imidazol-2-yl)-1-pyrrolidinyl)-1-oxo-2-propanol]: 1 to 99 nM.

As usually defined, the EC50 is the concentration at which the effect is half-maximal.

The record behind these values is US8574563B2 (Bristol-Myers Squibb Company, priority 2006, dated 2013).
